The assay deals with rats. The assay is described as follows: Forced Swimm Stress model, immobilization period. As to conditions: 30 mg/kg perorally, once a day for nine days. It is filed as in vivo. As for the experimental part: The stress-reducing effects of lavender oil was tested in rats by the so-called “Forced Swimm Stress” model (R. D. Porsolt et al. (1978), Eur. J. Pharmacol. 47, 379-391). The stress reaction experimentally elicited by this test in rats is a recognized method for testing stress-induced behaviour. The principle of the test system used involves that rats being put into a water-filled glass cylinder which they can not leave independently, fall into a still state after a short period of swimming (immobilization period). This immobility is interpreted as a reaction to recognizing the hopelessness of the situation (cf. Example 2).
In order to test the stress-reducing effects of lavender oil, rats were treated over a period of nine days in total with differently high dosages of lavender oil according to European Pharmacopoeia, edition 4 (WS® 1265) once a day. For comparison purposes some animals were treated either with the tricyclic antidepressive agent imipramine used in stress therapy or with a control solution without an active ingredient. On the seventh day of the treatment, the animals were placed into the water-filled glass cylinder for 15 minutes for familiarization purposes. At the final day of the treatment, the animals were placed into the graduated cylinder again for a period of 5 minutes and the period of immobility was measured as a measure of the stress reaction.

Immobilization period and inhibition data for one compound are collected here from patent US20080124410A1, “Use Of Lavender Oil For The Prophylaxis And Treatment Of Neurasthenia, Somatization Disorders And Other Stress-Associated Diseases” (priority 2004, published 2008).

By inhibition is commonly meant the percentage by which the read-out fell short of the control. A low value points to little suppression. Turning to `CN(C)CCCN1c2ccccc2CCc2ccccc21` [imipramine], the immobilization period was 48 ± 6 s. The inhibition (versus control) amounted to 67%.
